ChEMBL document CHEMBL1201862, “PubChem BioAssay data set” (2004)
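Following 48 hours of exposure in 96-well plates, responses at five concentrations were used to interpolate endpoints linearly. Here, GI50 denotes the concentration required for 50% inhibition of growth.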 The source made the active and inactive calls. No stated cut-off is given here; in the data, active = GI50 up to about 1.1 µM and inactive = higher.

What was measured:
Assay in all cases: growth of human tumour cells (NCI), 48 h
A498 = system: A498
ACHN = system: ACHN
CCRF-CEM = system: CCRF-CEM
COLO 205 = system: COLO 205
HCT-15 = system: HCT-15
KM12 = system: KM12
NCI-H460 = system: NCI-H460
OVCAR-3 = system: OVCAR-3
OVCAR-4 = system: OVCAR-4
OVCAR-5 = system: OVCAR-5
OVCAR-8 = system: OVCAR-8
RXF 393 = system: RXF 393
SF-268 = system: SF-268
SK-OV-3 = system: SK-OV-3
SN12C = system: SN12C
UO-31 = system: UO-31
EKVX = system: EKVX
NCI/ADR-RES = system: NCI/ADR-RES
PC-3 = system: PC-3

SMILES	GI50 (A498)	GI50 (ACHN)	GI50 (CCRF-CEM)	GI50 (COLO 205)	GI50 (HCT-15)	GI50 (KM12)	GI50 (NCI-H460)	GI50 (OVCAR-3)	GI50 (OVCAR-4)	GI50 (OVCAR-5)	GI50 (OVCAR-8)	GI50 (RXF 393)	GI50 (SF-268)	GI50 (SK-OV-3)	GI50 (SN12C)	GI50 (UO-31)	GI50 (EKVX)	GI50 (NCI/ADR-RES)	GI50 (PC-3)
C/N=N/N(C)C(=O)NC	> 100 µM (inactive)	> 100 µM (inactive)	> 100 µM (inactive)	> 100 µM (inactive)	> 100 µM	> 100 µM (inactive)	> 100 µM (inactive)	> 100 µM (inactive)	> 100 µM (inactive)	> 100 µM (inactive)	> 100 µM (inactive)	> 100 µM (inactive)	> 100 µM (inactive)	> 100 µM (inactive)	> 100 µM (inactive)	> 100 µM (inactive)			
CCc1cccc(C)c1NC(=O)C(=O)Cc1nc2ccccc2s1	> 100 µM (inactive)	> 100 µM (inactive)	> 100 µM (inactive)	> 100 µM (inactive)		> 100 µM (inactive)	> 100 µM (inactive)	> 100 µM (inactive)	> 100 µM (inactive)		> 100 µM (inactive)	> 100 µM (inactive)	> 100 µM (inactive)	> 100 µM (inactive)	> 100 µM (inactive)	> 100 µM (inactive)	> 100 µM (inactive)		
CCOC(=O)c1c(N2CCCC2)nsc1Nc1ccccc1	> 100 µM (inactive)	> 100 µM (inactive)	> 100 µM (inactive)	> 100 µM (inactive)	> 100 µM	> 100 µM (inactive)	> 100 µM (inactive)		> 100 µM (inactive)	44.6 µM (inactive)	> 100 µM (inactive)	> 100 µM (inactive)	> 100 µM (inactive)		> 100 µM (inactive)	27.5 µM (inactive)	> 100 µM (inactive)	> 100 µM (inactive)	> 100 µM (inactive)
CC1=[N+]([O-])c2ccccc2C(=O)C1=O	> 100 µM (inactive)	> 100 µM (inactive)	25.9 µM (inactive)	> 100 µM (inactive)	56.4 µM	> 100 µM (inactive)	61 µM (inactive)	29.2 µM (inactive)	68.5 µM (inactive)	> 100 µM (inactive)	> 100 µM (inactive)	81.1 µM (inactive)	42.2 µM (inactive)	> 100 µM (inactive)	> 100 µM (inactive)	> 100 µM (inactive)	> 100 µM (inactive)		
CCC1=CCC(P(=O)(c2ccccc2)c2ccccc2)CC1C (stereo not drawn)	38.5 µM (inactive)		31.3 µM (inactive)	35 µM (inactive)	34.9 µM	35.1 µM (inactive)	39.1 µM (inactive)	35.4 µM (inactive)	35.6 µM (inactive)	65.2 µM (inactive)	39.1 µM (inactive)	42.2 µM (inactive)	35.2 µM (inactive)	62.8 µM (inactive)	44.7 µM (inactive)	21.7 µM (inactive)	35.3 µM (inactive)		
CN(C)CS/C(N)=N\C(O)C(Cl)(Cl)Cl (stereo not drawn)	> 100 µM (inactive)	> 100 µM (inactive)	51.6 µM (inactive)		> 100 µM	> 100 µM (inactive)	> 100 µM (inactive)	> 100 µM (inactive)	> 100 µM (inactive)	> 100 µM (inactive)	> 100 µM (inactive)	> 100 µM (inactive)	> 100 µM (inactive)		> 100 µM (inactive)	> 100 µM (inactive)	> 100 µM (inactive)	> 100 µM (inactive)	> 100 µM (inactive)
COc1cccc2cc(C(N)=O)c(=N)oc12	> 100 µM (inactive)	40.3 µM (inactive)	40.6 µM (inactive)	49.4 µM (inactive)	52.6 µM	42.6 µM (inactive)	37.2 µM (inactive)	36.9 µM (inactive)	53.5 µM (inactive)	51.3 µM (inactive)	50 µM (inactive)	70.5 µM (inactive)	51.1 µM (inactive)	49.9 µM (inactive)	39.4 µM (inactive)		29.2 µM (inactive)	57.1 µM (inactive)	65.3 µM (inactive)
Cc1ccc(Sc2ccccc2N)cc1	30.8 µM (inactive)	37.7 µM (inactive)	23.2 µM (inactive)	40 µM (inactive)	37.8 µM	25.5 µM (inactive)	30.4 µM (inactive)	44.7 µM (inactive)	46.9 µM (inactive)	> 100 µM (inactive)	52.2 µM (inactive)	18.7 µM (inactive)	21 µM (inactive)	> 100 µM (inactive)	41.1 µM (inactive)	12.8 µM (inactive)	54.6 µM (inactive)		
CN(C)C(=S)/N=c1\ssc(=S)n1Cc1ccccn1	4.84 µM (inactive)	8.24 µM (inactive)	10.7 µM (inactive)	2.75 µM (inactive)	2.01 µM	1.14 µM (inactive)	2.93 µM (inactive)	2.52 µM (inactive)	14 µM (inactive)	> 100 µM (inactive)	4.54 µM (inactive)	3.01 µM (inactive)	6 µM (inactive)	4.67 µM (inactive)	7.03 µM (inactive)	3.7 µM (inactive)	3.89 µM (inactive)		
C[C@H]1C=C2C(=O)O[C@H]3CC[C@@H](C1)[C@@]23O	10.6 µM (inactive)	4.97 µM (inactive)	2.01 µM (inactive)	3.26 µM (inactive)	3.65 µM	2.92 µM (inactive)	6 µM (inactive)	5.38 µM (inactive)	10.3 µM (inactive)	4.33 µM (inactive)	3.39 µM (inactive)	2.79 µM (inactive)	3.13 µM (inactive)	8 µM (inactive)	2.4 µM (inactive)	18.2 µM (inactive)	2.67 µM (inactive)		
Cc1ccc(Sc2ccccc2C23OC(C)(C4C(=O)N(c5ccccc5)C(=O)C42)N(C)C3=O)cc1 (stereo not drawn)	86.9 µM (inactive)	> 100 µM (inactive)	> 100 µM (inactive)	> 100 µM (inactive)	> 100 µM	> 100 µM (inactive)	> 100 µM (inactive)	> 100 µM (inactive)	84.5 µM (inactive)	> 100 µM (inactive)	> 100 µM (inactive)	85.7 µM (inactive)	> 100 µM (inactive)	> 100 µM (inactive)	90.2 µM (inactive)	> 100 µM (inactive)	> 100 µM (inactive)	> 100 µM (inactive)	> 100 µM (inactive)
COc1cc(C(=O)N[C@H]2CCc3cc(OC)c(OC)c(OC)c3-c3ccc(SC)c(=O)cc32)cc(OC)c1OC	0.0403 µM (active)	0.136 µM (active)	0.00705 µM (active)	0.0342 µM (active)	0.444 µM	0.0025 µM (active)	0.00615 µM (active)	0.00502 µM (active)	1.42 µM (inactive)	0.0107 µM (active)	0.00813 µM (active)	0.00752 µM (active)	0.0218 µM (active)	0.00655 µM (active)	0.0204 µM (active)	0.019 µM (active)	0.0106 µM (active)		
